Assay results: the Kinase Knowledgebase extract (Sharma et al. 2016)

Assays:
[1] = biological target: PIK3CG (human) (UniProt P48736); experiment: Assessment of PIK3CG Kinase Activity
[2] = biological target: PIK3CA (human) (UniProt P42336); experiment: Assessment of PIK3CA Kinase Activity
[3] = biological target: PIK3CD (Human) (UniProt O00329); experiment: Assessment of PIK3CD Kinase Activity
[4] = biological target: PIK3CB (Human) (UniProt P42338); experiment: Assessment of PIK3CB Kinase Activity
Chain of PIK3CB (Human) (P42338 whole entry, looked up): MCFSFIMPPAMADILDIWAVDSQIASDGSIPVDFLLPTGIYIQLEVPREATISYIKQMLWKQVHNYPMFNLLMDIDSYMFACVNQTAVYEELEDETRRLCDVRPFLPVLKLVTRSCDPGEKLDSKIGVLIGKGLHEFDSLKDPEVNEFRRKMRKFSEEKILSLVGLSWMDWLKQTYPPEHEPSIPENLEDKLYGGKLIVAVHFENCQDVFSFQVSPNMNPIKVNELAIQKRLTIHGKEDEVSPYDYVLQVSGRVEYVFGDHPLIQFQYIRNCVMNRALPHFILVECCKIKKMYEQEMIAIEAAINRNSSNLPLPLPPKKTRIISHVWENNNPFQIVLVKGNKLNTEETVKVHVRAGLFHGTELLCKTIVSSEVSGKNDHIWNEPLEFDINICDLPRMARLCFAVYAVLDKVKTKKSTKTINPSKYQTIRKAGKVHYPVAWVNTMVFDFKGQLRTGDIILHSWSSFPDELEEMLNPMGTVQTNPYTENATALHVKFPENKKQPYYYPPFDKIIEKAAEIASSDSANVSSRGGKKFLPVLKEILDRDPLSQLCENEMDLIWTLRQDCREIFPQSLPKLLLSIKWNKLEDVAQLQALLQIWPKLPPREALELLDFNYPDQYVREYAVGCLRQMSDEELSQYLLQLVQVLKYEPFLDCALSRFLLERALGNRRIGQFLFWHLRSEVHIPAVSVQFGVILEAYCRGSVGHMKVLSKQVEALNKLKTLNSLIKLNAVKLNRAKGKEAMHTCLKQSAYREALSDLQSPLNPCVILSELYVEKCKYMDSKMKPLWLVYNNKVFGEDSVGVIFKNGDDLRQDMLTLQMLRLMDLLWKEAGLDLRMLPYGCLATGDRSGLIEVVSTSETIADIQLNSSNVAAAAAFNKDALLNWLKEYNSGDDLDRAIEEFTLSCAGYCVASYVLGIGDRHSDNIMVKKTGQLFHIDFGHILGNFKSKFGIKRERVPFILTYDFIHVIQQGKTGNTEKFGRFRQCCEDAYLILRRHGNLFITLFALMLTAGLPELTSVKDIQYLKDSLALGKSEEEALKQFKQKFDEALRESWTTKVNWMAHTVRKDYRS

Chain of PIK3CA (human) (P42336 whole entry, looked up): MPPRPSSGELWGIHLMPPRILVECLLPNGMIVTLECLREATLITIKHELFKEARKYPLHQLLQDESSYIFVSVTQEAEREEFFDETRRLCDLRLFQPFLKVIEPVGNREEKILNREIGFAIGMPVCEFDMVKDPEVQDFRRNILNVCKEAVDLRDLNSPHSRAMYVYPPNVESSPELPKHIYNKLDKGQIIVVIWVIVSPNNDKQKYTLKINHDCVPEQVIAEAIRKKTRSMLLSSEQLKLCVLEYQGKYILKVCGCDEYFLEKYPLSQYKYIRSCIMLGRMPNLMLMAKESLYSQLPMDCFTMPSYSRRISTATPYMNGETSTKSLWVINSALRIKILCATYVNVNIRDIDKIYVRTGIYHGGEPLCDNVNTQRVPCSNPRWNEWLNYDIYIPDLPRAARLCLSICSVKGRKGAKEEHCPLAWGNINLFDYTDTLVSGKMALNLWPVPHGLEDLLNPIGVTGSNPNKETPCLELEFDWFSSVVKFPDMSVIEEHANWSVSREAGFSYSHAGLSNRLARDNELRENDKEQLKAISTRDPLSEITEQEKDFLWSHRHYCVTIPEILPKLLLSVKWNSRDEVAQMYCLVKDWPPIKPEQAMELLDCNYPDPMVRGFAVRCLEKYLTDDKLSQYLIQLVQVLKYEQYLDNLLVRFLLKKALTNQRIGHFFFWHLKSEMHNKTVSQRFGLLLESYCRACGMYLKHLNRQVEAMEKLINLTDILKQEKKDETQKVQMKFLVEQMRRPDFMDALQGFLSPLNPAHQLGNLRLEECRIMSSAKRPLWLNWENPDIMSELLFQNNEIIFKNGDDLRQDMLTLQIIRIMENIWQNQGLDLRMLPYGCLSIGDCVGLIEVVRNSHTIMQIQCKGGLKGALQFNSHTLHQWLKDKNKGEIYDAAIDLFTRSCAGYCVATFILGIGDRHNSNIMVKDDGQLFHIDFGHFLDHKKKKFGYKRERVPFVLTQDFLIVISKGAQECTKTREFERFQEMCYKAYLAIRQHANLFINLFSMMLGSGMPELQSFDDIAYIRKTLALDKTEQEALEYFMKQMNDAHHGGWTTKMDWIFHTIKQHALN
Chain of PIK3CD (Human) (O00329 whole entry, looked up): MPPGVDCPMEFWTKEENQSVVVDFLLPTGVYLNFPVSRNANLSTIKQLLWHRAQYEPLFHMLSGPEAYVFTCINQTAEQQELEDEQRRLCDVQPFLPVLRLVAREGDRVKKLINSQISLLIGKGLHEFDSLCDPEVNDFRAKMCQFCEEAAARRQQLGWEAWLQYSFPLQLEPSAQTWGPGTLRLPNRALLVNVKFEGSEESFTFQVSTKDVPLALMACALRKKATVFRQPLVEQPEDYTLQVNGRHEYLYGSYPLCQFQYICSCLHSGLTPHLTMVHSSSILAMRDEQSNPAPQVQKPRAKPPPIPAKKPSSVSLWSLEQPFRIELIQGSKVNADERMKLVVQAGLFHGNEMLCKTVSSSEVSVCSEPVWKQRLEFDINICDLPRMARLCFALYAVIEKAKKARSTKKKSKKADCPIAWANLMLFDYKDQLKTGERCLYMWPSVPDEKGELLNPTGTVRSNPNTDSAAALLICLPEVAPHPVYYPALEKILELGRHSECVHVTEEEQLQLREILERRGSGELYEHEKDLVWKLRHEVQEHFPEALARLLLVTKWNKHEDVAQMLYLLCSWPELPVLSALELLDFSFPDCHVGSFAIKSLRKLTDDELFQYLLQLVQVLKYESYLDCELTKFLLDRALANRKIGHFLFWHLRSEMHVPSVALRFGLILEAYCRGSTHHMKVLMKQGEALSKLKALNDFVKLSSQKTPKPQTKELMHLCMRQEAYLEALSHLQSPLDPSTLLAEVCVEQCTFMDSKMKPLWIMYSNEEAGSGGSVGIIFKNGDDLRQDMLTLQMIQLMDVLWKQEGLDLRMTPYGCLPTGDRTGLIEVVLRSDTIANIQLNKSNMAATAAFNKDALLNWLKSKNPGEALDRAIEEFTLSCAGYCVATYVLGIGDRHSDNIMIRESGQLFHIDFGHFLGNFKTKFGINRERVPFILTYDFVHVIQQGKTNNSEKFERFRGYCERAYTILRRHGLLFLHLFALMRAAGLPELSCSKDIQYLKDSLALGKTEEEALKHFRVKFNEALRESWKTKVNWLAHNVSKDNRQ
Chain of PIK3CG (human) (P48736 whole entry, looked up): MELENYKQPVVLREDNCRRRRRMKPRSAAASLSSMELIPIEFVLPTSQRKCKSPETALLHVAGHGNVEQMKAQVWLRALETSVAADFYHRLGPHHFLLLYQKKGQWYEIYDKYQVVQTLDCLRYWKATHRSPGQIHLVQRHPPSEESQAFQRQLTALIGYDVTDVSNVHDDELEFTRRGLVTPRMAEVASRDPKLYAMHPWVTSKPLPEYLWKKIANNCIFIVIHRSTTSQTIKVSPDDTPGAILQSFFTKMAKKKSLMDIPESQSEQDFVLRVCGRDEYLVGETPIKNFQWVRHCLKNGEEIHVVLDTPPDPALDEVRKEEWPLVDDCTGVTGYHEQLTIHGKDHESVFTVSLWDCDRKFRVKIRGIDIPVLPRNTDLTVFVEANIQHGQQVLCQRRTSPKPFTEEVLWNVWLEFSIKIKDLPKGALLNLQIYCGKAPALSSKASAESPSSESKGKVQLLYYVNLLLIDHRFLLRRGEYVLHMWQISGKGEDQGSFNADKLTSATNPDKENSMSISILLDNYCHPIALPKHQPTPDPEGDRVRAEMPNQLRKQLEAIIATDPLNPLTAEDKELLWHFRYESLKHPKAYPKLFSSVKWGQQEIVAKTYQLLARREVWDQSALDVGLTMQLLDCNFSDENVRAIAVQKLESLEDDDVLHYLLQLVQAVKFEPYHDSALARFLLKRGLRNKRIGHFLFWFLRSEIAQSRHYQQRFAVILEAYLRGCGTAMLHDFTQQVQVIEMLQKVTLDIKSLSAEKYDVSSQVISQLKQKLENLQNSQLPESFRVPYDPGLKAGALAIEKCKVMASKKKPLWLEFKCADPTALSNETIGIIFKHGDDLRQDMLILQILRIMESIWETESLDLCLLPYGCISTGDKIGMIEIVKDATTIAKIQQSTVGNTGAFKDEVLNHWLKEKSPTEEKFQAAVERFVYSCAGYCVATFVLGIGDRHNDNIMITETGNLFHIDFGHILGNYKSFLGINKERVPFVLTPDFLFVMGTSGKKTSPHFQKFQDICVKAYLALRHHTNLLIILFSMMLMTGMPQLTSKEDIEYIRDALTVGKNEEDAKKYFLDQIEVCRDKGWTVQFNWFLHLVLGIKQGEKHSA

IC50 [1] [nM]	IC50 [2] [nM]	IC50 [3] [nM]	IC50 [4] [nM]	Compound
< 100	> 10000	< 100	100 to 1000	C[C@H](Nc1nc(N)ncc1[N+](=O)[O-])c1cc2cccc(Cl)c2c(=O)n1-c1ccccc1
100 to 1000	> 10000	< 100	> 10000	COc1cc(-c2cccc3cc([C@H](C)Nc4nc(N)ncc4-c4cc(O)cc(F)c4)n(-c4ccccc4)c(=O)c23)ccn1
> 10000	> 10000	100 to 1000	> 10000	C[C@H](Nc1ncnc(Cl)c1[N+](=O)[O-])c1cc2cccc(Cl)c2c(=O)n1-c1ccccc1
> 10000	> 10000	> 10000	> 10000	Cc1cc(N[C@@H](C)c2cc3cccc(Cl)c3c(=O)n2-c2ccccc2)nc(N)n1
100 to 1000	> 10000	100 to 1000	100 to 1000	C[C@H](Nc1nc(N)ncc1C#N)c1cc2cccc(Cl)c2c(=O)n1C
< 100	> 10000	100 to 1000	> 10000	COc1cc(-c2cccc3cc([C@H](C)Nc4nc(N)ncc4-c4ccccc4)n(-c4ccccc4)c(=O)c23)ccn1
100 to 1000	> 10000	–	> 10000	CCN(C)C(=O)c1cnc(N)nc1N[C@@H](C)c1cc2cccc(-c3ccnc(OC)c3)c2c(=O)n1-c1ccccc1
< 100	100 to 1000	< 100	100 to 1000	CNC(=O)c1cnc(N)nc1N[C@@H](C)c1cc2cccc(-c3ccnc(OC)c3)c2c(=O)n1-c1ccccc1
< 100	> 10000	< 100	> 10000	COc1ncc(-c2cccc3cc([C@H](C)Nc4nc(N)ncc4C(N)=O)n(-c4ccccc4)c(=O)c23)cn1
–	> 10000	> 10000	> 10000	CC(=O)Nc1cnc(N)nc1N[C@@H](C)c1cc2cccc(Cl)c2c(=O)n1-c1ccccc1
< 100	> 10000	< 100	100 to 1000	C[C@H](Nc1nc(N)ncc1C#N)c1cc2cccc(Cl)c2c(=O)n1C1CCCC1
< 100	> 10000	< 100	100 to 1000	Cc1ncc(-c2cnc(N)nc2N[C@@H](C)c2cc3cccc(Cl)c3c(=O)n2-c2ccccc2)s1
–	> 10000	100 to 1000	> 10000	C[C@H](Nc1nc(Cl)ncc1[N+](=O)[O-])c1cc2cccc(Cl)c2c(=O)n1-c1ccccc1
< 100	> 10000	100 to 1000	> 10000	COc1cc(-c2cccc3cc([C@H](C)Nc4nc(N)ncc4C(=O)N(C)OC)n(-c4ccccc4)c(=O)c23)ccn1
< 100	< 100	< 100	< 100	Cc1nc(N)nc(N[C@@H](C)c2cc3cccc(Cl)c3c(=O)n2-c2ccccc2)c1C#N
100 to 1000	> 10000	< 100	100 to 1000	C[C@H](Nc1nc(N)ncc1C#N)c1cc2cccc(-c3ccnnc3)c2c(=O)n1C1CC1
< 100	< 100	< 100	100 to 1000	C[C@H](Nc1nc(N)ncc1C#N)c1cc2cccc(-c3cnc4ccccc4c3)c2c(=O)n1-c1ccccc1
< 100	> 10000	< 100	> 10000	COc1ncc(-c2cccc3cc([C@H](C)Nc4nc(N)ncc4C#N)n(-c4cccc(F)c4)c(=O)c23)cn1
100 to 1000	> 10000	100 to 1000	> 10000	COc1cc(-c2cccc3cc([C@H](C)Nc4nc(N)ncc4C(=O)N4CC(F)(F)C4)n(-c4ccccc4)c(=O)c23)ccn1
< 100	100 to 1000	< 100	100 to 1000	Cc1ccc(-c2cccc3cc([C@H](C)Nc4nc(N)ncc4C#N)n(-c4ccccc4)c(=O)c23)cc1
< 100	100 to 1000	< 100	100 to 1000	C[C@H](Nc1nc(N)ncc1C#N)c1cc2cccc(C#CCCC(=O)N3CCOCC3)c2c(=O)n1-c1ccccc1
100 to 1000	> 10000	< 100	> 10000	COc1ncc(-c2cccc3cc([C@H](C)Nc4nc(N)ncc4C(F)(F)F)n(-c4cccc(F)c4)c(=O)c23)cn1
< 100	100 to 1000	< 100	> 10000	C[C@H](Nc1nc(N)ncc1C#N)c1cc2cccc(-c3cncc(N(C)C)c3)c2c(=O)n1-c1ccccc1
100 to 1000	> 10000	–	> 10000	COc1cccc2cc([C@H](C)Nc3nc(N)ncc3C#N)n(-c3ccccc3)c(=O)c12
< 100	> 10000	–	> 10000	C[C@H](Nc1nc(N)ncc1C(=O)N1CCC1)c1cc2cccc(Cl)c2c(=O)n1-c1ccccc1
–	> 10000	< 100	> 10000	COc1cc(-c2cccc3cc([C@H](C)Nc4nc(N)ncc4C(=O)NC4CC4)n(-c4ccccc4)c(=O)c23)ccn1
< 100	> 10000	–	> 10000	COc1cc(-c2cccc3cc([C@H](C)Nc4nc(N)ncc4C(=O)N4CCC4)n(-c4ccccc4)c(=O)c23)ccn1

IC50 [1] [nM]	IC50 [2] [nM]	IC50 [3] [nM]	IC50 [4] [nM]	Compound
–	> 10000	100 to 1000	> 10000	C[C@H](Nc1cc(N)ncn1)c1cc2cccc(Cl)c2c(=O)n1-c1ccccc1
> 10000	> 10000	> 10000	> 10000	C[C@H](Nc1nc(N)ncc1NS(C)(=O)=O)c1cc2cccc(Cl)c2c(=O)n1-c1ccccc1
< 100	100 to 1000	< 100	> 10000	COc1cc(-c2cccc3cc([C@H](C)Nc4nc(N)ncc4C(=O)N(C)C)n(-c4ccccc4)c(=O)c23)ccn1
> 10000	> 10000	> 10000	> 10000	C[C@H](Nc1cc(C(F)(F)F)nc(N)n1)c1cc2cccc(Cl)c2c(=O)n1-c1ccccc1
< 100	< 100	< 100	100 to 1000	COc1cc(-c2cccc3cc([C@H](C)Nc4nc(N)nc(C)c4C#N)n(-c4ccccc4)c(=O)c23)ccn1
< 100	> 10000	< 100	> 10000	C[C@H](Nc1nc(N)ncc1C#N)c1cc2cccc(-c3ccnc(O)c3)c2c(=O)n1-c1ccccc1
100 to 1000	> 10000	–	> 10000	C[C@H](Nc1nc(N)ncc1S(C)(=O)=O)c1cc2cccc(Cl)c2c(=O)n1-c1ccccc1
< 100	> 10000	< 100	> 10000	Cc1ncc(-c2cccc3nc([C@H](C)Nc4nc(N)ncc4C#N)n(-c4ccccc4)c(=O)c23)cn1
100 to 1000	> 10000	–	> 10000	C[C@H](Nc1nc(N)ncc1-c1ccccc1)c1cc2cccc(Cl)c2c(=O)n1-c1ccccc1
100 to 1000	> 10000	< 100	> 10000	C[C@H](Nc1nc(N)ncc1C#N)c1cc2cccc(-c3cccc(O)n3)c2c(=O)n1-c1ccccc1
< 100	100 to 1000	< 100	100 to 1000	C[C@H](Nc1nc(N)ncc1C#N)c1cc2cccc(-c3cnc4[nH]ccc4c3)c2c(=O)n1-c1ccccc1
< 100	> 10000	< 100	100 to 1000	C[C@H](Nc1nc(N)ncc1C#N)c1cc2cccc(Cl)c2c(=O)n1-c1cccnc1
< 100	> 10000	< 100	> 10000	COc1cc(-c2cccc3cc([C@H](C)Nc4nc(N)ncc4-c4ccc(F)c(O)c4)n(-c4ccccc4)c(=O)c23)ccn1
100 to 1000	> 10000	< 100	> 10000	COc1ncc(-c2cccc3cc([C@H](C)Nc4nc(N)ncc4C(F)(F)F)n(-c4ccccc4)c(=O)c23)cn1
> 10000	> 10000	> 10000	> 10000	COc1cc(-c2cccc3cc([C@H](C)Nc4nc(N)ncc4C(=O)O)n(-c4ccccc4)c(=O)c23)ccn1
< 100	100 to 1000	< 100	100 to 1000	C[C@H](Nc1nc(N)ncc1C#N)c1cc2cccc(-c3cnc4[nH]ccc4c3)c2c(=O)n1-c1cccc(F)c1
< 100	> 10000	100 to 1000	> 10000	C[C@H](Nc1nc(N)ncc1-c1cccnc1)c1cc2cccc(Cl)c2c(=O)n1-c1ccccc1
100 to 1000	> 10000	100 to 1000	> 10000	C[C@H](Nc1cc(Cl)nc(N)n1)c1cc2cccc(Cl)c2c(=O)n1-c1ccccc1
< 100	> 10000	100 to 1000	> 10000	C[C@H](Nc1nc(N)ncc1C(=O)N1CCC1)c1cc2cccc(-c3cnn(C)c3)c2c(=O)n1-c1ccccc1
< 100	> 10000	< 100	> 10000	COc1ncc(-c2cccc3nc([C@H](C)Nc4nc(N)ncc4C#N)n(-c4ccccc4)c(=O)c23)cn1
< 100	100 to 1000	< 100	< 100	COc1cc(-c2cccc3cc([C@H](C)Nc4nc(N)ncc4C#N)n(C4CC4)c(=O)c23)ccn1
100 to 1000	> 10000	< 100	> 10000	COc1cncc(-c2cccc3cc([C@H](C)Nc4nc(N)ncc4C#N)n(-c4ccccc4)c(=O)c23)n1
100 to 1000	> 10000	–	> 10000	COc1cnc(-c2cccc3cc([C@H](C)Nc4nc(N)ncc4C#N)n(-c4ccccc4)c(=O)c23)nc1
–	> 10000	–	> 10000	COc1cc(-c2cccc3cc([C@H](C)Nc4nc(N)ncc4C(=O)N4CCOCC4)n(-c4ccccc4)c(=O)c23)ccn1
–	> 10000	–	> 10000	C[C@H](Nc1nc(N)ncc1NC(=O)c1ccccc1)c1cc2cccc(Cl)c2c(=O)n1-c1ccccc1
–	> 10000	–	> 10000	C[C@H](Nc1nc(N)ncc1C(=O)N1CC(F)(F)C1)c1cc2cccc(Cl)c2c(=O)n1-c1ccccc1
